{"source": "paper doi:10.1101/2025.07.05.663305v1", "about": "“Structure of Photosystem I with SOD reveals coupling between energy conversion and oxidative stress protection” (biorxiv, 2025)", "molecular_target": "T1, FCPb (Chromera velia, UniProt A0A0G4ID45)", "T1 construct": "gene Cvel_13255; native PSI-SOD-FCPI supercomplex purified from cells; contacts PsaD, PsaL, PsaA2 and SOD1", "T1 sequence (A0A0G4ID45 1-293)": "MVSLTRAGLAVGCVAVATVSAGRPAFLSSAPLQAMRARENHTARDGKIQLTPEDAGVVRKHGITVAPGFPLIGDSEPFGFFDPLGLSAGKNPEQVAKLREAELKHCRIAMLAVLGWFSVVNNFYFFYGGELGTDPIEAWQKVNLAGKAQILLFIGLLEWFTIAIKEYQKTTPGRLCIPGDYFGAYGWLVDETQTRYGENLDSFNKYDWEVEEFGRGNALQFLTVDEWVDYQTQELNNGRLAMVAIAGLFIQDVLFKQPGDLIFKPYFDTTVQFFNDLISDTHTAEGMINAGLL", "test": "cryo-EM structure", "format": "binding", "details": "four sites 301, 302, 303, 305"}
{"molecule": "CC(/C=C/C=C(C)/C=C/[C@@]12O[C@]1(C)C[C@@H](O)CC2(C)C)=C\\C=C\\C=C(C)\\C=C\\C=C(C)\\C=C\\[C@@]12O[C@]1(C)C[C@@H](O)CC2(C)C", "note": "[violaxanthin]", "values": [{"measurement": "cryo-EM structure", "value": "FCPb binds ten Chls a and four violaxanthins"}]}
